Test results as given in patent US20100055066A1, “Agent for prophylactic and/or therapeutic treatment of diabetes” (priority 2004, published 2010).

How the values were obtained:
Assay type in all cases: in vivo
SHP = assay: Liver SHP gene expression by quantitative PCR after FXR agonist (Example 2); conditions: KKAy mice, 10 mg/kg orally for 4 days, liver on 5th day, FIG. 6-2
Method: (§1) An FXR agonist, GW-4064 (J. Med. Chem., vol. 43(16), pp. 2971-2974, 2000), was orally administered in a dosage of 10 mg/kg for 4 days. On the 5th day, mice were dissected to isolate the livers.

cyp7α = assay: Liver cyp7α gene expression by quantitative PCR after FXR agonist (Example 2); conditions: KKAy mice, 10 mg/kg orally for 4 days, liver on 5th day, FIG. 6-1
Method: as §1

PEPCK = assay: Liver PEPCK gene expression by quantitative PCR after FXR agonist (Example 2); conditions: KKAy mice, 10 mg/kg orally for 4 days, liver on 5th day, FIG. 7
Method: as §1

CC(C)c1onc(-c2c(Cl)cccc2Cl)c1COc1ccc(/C=C/c2cccc(C(=O)O)c2)c(Cl)c1 [GW-4064]
expression level of the gene for SHP in the liver compared with control group (SHP): increased | expression level of the gene for cyp7α in the liver compared with control group (cyp7α): decreased | expression level of the gene for PEPCK in the liver compared with control group (PEPCK): increased
